# Results reported in patent US8901087B2, “Selective glycosidase inhibitors and uses thereof” (priority 2010, dated 2014).
# Target: human O-GlcNAcase (Homo sapiens (Human), UniProt O60502)
# Assay: Fluorescence-based assay for determination of KI values for inhibition of O-GlcNAcase activity
# Format: biochemical
# Conditions: not given
# Protocol: Assay for Determination of KI Values for Inhibition of O-GlcNAcase Activity
# Experimental Procedure for Kinetic Analyses
# Enzymatic reactions are carried out in a reaction containing 50 mM NaH2PO4, 100 mM NaCl and 0.1% BSA (pH 7.0) using 2 mM 4-Methylumbelliferyl N-acetyl-β-D-glucosaminide dihydrate (Sigma M2133) dissolved in ddH2O, as a substrate. The amount of purified human O-GlcNAcase enzyme used in the reaction is 0.7 nM. Test compound of varying concentrations is added to the enzyme prior to initiation of the reaction. The reaction is performed at room temperature in a 96-well plate and is initiated with the addition of substrate. […] The slope of product production is determined for each concentration of compound tested and plotted, using standard curve fitting algorithms for sigmoidal dose response curves. The values for a four parameter logistic curve fit of the data are determined.
# Sequence of human O-GlcNAcase (O60502 whole entry): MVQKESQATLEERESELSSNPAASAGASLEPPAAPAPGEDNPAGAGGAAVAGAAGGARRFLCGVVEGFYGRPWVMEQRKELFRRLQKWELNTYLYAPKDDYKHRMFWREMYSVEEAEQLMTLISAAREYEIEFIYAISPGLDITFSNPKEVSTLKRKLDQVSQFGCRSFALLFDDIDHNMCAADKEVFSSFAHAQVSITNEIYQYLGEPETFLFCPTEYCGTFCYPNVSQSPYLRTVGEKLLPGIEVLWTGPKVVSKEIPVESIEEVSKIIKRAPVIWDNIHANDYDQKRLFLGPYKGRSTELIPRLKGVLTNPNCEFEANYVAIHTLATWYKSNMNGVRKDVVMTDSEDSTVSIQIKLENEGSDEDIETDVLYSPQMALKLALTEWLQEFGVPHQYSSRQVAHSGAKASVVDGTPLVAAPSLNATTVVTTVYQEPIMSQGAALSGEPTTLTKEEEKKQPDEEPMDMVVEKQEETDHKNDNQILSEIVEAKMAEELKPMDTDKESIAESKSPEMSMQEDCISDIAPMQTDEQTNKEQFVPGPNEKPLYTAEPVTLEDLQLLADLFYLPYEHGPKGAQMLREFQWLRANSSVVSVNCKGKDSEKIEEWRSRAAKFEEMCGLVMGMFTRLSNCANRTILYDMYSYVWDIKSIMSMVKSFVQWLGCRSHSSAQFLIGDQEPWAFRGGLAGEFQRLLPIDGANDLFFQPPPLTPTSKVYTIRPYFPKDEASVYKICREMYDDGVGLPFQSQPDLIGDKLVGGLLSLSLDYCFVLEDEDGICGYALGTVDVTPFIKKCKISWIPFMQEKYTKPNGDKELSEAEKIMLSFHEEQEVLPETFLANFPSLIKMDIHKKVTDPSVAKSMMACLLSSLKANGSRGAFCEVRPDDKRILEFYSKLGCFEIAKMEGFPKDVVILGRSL
row,Compound,Ki
1,"CON(C)C1=N[C@@H]2[C@@H](O)[C@H](O)[C@@H]([C@H](C)O)O[C@@H]2S1 (single isomer, unassigned) [Example 51]",5.1 nM

# Same assay, conditions: purified human O-GlcNAcase, 4-Methylumbelliferyl N-acetyl-β-D-glucosaminide substrate, pH 7.0, Cheng-Prusoff; read-out: Fluorescence-based hOGA Ki
row,Compound,Ki
1,"CN(C)C1=N[C@@H]2[C@@H](O)[C@H](O)[C@@H](C(C)(O)C(F)(F)F)O[C@@H]2S1 (mixture of isomers) [Example 203, (3aR,5S,6S,7R,7aR)-2-(dimethylamino)-5-((S)-1,1,1-trifluoro-2-hydroxypropan-2-yl)-5,6,7,7a-tetrahydro-3aH-pyrano[3,2-d]thiazole-6,7-diol]",3.16 nM
2,"CNC1=N[C@@H]2[C@@H](O)[C@H](O)[C@@H]([C@H](C)O)O[C@@H]2S1 (single isomer, unassigned) [Example 13]",0.4 nM
3,"C=CC[C@H](O)[C@H]1O[C@@H]2SC(NC)=N[C@@H]2[C@@H](O)[C@@H]1O (single isomer, unassigned) [Example 25]",0.7 nM
4,"CCNC1=N[C@@H]2[C@@H](O)[C@H](O)[C@@H]([C@H](C)O)O[C@@H]2S1 (single isomer, unassigned) [Example 27]",0.12 nM
5,"C=C[C@H](O)[C@H]1O[C@@H]2SC(NCCC)=N[C@@H]2[C@@H](O)[C@@H]1O (single isomer, unassigned) [Example 42]",1.03 nM
6,"CCCNC1=N[C@H]2C(O[C@H]([C@@H](O)CC)[C@@H](O)[C@@H]2O)S1 (single isomer, unassigned) [Example 47]",6.4 nM
7,"C[C@H](O)[C@H]1O[C@@H]2SC(NCC3CC3)=N[C@@H]2[C@@H](O)[C@@H]1O (single isomer, unassigned) [Example 53]",0.7 nM
8,"CCN(C)C1=N[C@H]2C(O[C@H]([C@H](C)O)[C@@H](O)[C@@H]2O)S1 (single isomer, unassigned) [Example 57]",0.33 nM
9,"C=CC(O)C1O[C@@H]2SC(N(C)CC)=N[C@@H]2[C@@H](O)[C@@H]1O (single isomer, unassigned) [Example 61]",2.46 nM
10,"C=C[C@H](O)[C@H]1O[C@@H]2SC(N(C)C)=N[C@@H]2[C@@H](O)[C@@H]1O (single isomer, unassigned) [Example 63]",0.22 nM
11,"C=C(C)[C@H](O)[C@H]1O[C@@H]2SC(N(C)C)=N[C@@H]2[C@@H](O)[C@@H]1O (single isomer, unassigned) [Example 65]",0.45 nM
12,"C=CC[C@H](O)[C@H]1O[C@@H]2SC(N(C)C)=N[C@@H]2[C@@H](O)[C@@H]1O (single isomer, unassigned) [Example 67]",1.25 nM
13,"CCC[C@H](O)[C@H]1O[C@@H]2SC(N(C)C)=N[C@@H]2[C@@H](O)[C@@H]1O (single isomer, unassigned) [Example 69]",9.36 nM
14,"CCCC[C@H](O)[C@H]1O[C@@H]2SC(N(C)C)=N[C@@H]2[C@@H](O)[C@@H]1O (single isomer, unassigned) [Example 71]",9.12 nM
15,"C[C@H](O)[C@H]1O[C@@H]2SC(N3CCC3)=N[C@@H]2[C@@H](O)[C@@H]1O (single isomer, unassigned) [Example 76]",0.18 nM
16,"C=C[C@H](O)[C@H]1O[C@@H]2SC(N3CCC3)=N[C@@H]2[C@@H](O)[C@@H]1O (single isomer, unassigned) [Example 80]",0.5 nM
17,"C=CC[C@H](O)[C@H]1O[C@@H]2SC(N3CCC3)=N[C@@H]2[C@@H](O)[C@@H]1O (single isomer, unassigned) [Example 82]",5.84 nM
18,"C[C@H](O)[C@H]1O[C@@H]2SC(N3CCCC3)=N[C@@H]2[C@@H](O)[C@@H]1O (single isomer, unassigned) [Example 91]",0.53 nM

row,Compound,Ki
1,"CNC1=N[C@@H]2[C@@H](O)[C@H](O)[C@@H]([C@@H](C)F)O[C@@H]2S1 (single isomer, unassigned) [Example 181]",0.8 nM
2,"CCN(C)C1=N[C@@H]2[C@@H](O)[C@H](O)[C@@H]([C@@H](O)C(F)(F)F)O[C@@H]2S1 (single isomer, unassigned) [Example 211]",0.44 nM
3,"C[C@H](O)[C@H]1O[C@@H]2SC(N(C)C)=N[C@@H]2[C@@H](O)[C@@H]1O [Example 1, (3aR,5R,6S,7R,7aR)-2-(Dimethylamino)-5-((S)-1-hydroxyethyl)-5,6,7,7a-tetrahydro-3aH-pyrano[3,2-d]thiazole-6,7-diol]",0.17 nM
4,"CCCNC1=N[C@@H]2[C@@H](O)[C@H](O)[C@@H]([C@H](C)O)O[C@@H]2S1 [Example 2, (3aR,5R,6S,7R,7aR)-5-((S)-1-hydroxyethyl)-2-(propylamino)-5,6,7,7a-tetrahydro-3aH-pyrano[3,2-d]thiazole-6,7-diol]",0.05 nM
5,"CNC1=N[C@@H]2[C@@H](O)[C@H](O)[C@@H](C(C)(C)O)O[C@@H]2S1 [Example 3, (3aR,5S,6S,7R,7aR)-5-(2-Hydroxypropan-2-yl)-2-(methylamino)-5,6,7,7a-tetrahydro-3aH-pyrano[3,2-d]thiazole-6,7-diol]",0.9 nM
6,"CN(C)C1=N[C@@H]2[C@@H](O)[C@H](O)[C@@H](C(C)(C)O)O[C@@H]2S1 [Example 4, (3aR,5S,6S,7R,7aR)-2-(dimethylamino)-5-(2-hydroxypropan-2-yl)-5,6,7,7a-tetrahydro-3aH-pyrano[3,2-d]thiazole-6,7-diol]",3.1 nM
7,"CC[C@H]1O[C@@H]2SC(NC)=N[C@@H]2[C@@H](O)[C@@H]1O [Example 8, (3aR,5R,6S,7R,7aR)-5-Ethyl-2-(methylamino)-5,6,7,7a-tetrahydro-3aH-pyrano[3,2-d]thiazole-6,7-diol]",0.68 nM
8,"CN(C)C1=N[C@@H]2[C@@H](O)[C@H](O)[C@@H]([C@@H](O)C(F)(F)F)O[C@@H]2S1 [Example 11, (3aR,5S,6S,7R,7aR)-2-(dimethylamino)-5-((R)-2,2,2-trifluoro-1-hydroxyethyl)-5,6,7,7a-tetrahydro-3aH-pyrano[3,2-d]thiazole-6,7-diol]",0.3 nM
9,"CC(C)(O)[C@H]1O[C@@H]2SC(N3CCC3)=N[C@@H]2[C@@H](O)[C@@H]1O [Example 77, (3aR,5S,6S,7R,7aR)-2-(azetidin-1-yl)-5-(2-hydroxypropan-2-yl)-5,6,7,7a-tetrahydro-3aH-pyrano[3,2-d]thiazole-6,7-diol]",16.3 nM
10,"CNC1=N[C@@H]2[C@@H](O)[C@H](O)[C@@H]([C@@H](O)C(F)(F)F)O[C@@H]2S1 [Example 95, (3aR,5S,6S,7R,7aR)-2-(methylamino)-5-((R)-2,2,2-trifluoro-1-hydroxyethyl)-5,6,7,7a-tetrahydro-3aH-pyrano[3,2-d]thiazole-6,7-diol]",0.16 nM
11,"CCCNC1=N[C@@H]2[C@@H](O)[C@H](O)[C@@H]([C@@H](O)C(F)(F)F)O[C@@H]2S1 [Example 97, (3aR,5S,6S,7R,7aR)-2-(propylamino)-5-((R)-2,2,2-trifluoro-1-hydroxyethyl)-5,6,7,7a-tetrahydro-3aH-pyrano[3,2-d]thiazole-6,7-diol]",0.17 nM
12,"CON(C)C1=N[C@@H]2[C@@H](O)[C@H](O)[C@@H]([C@@H](O)C(F)(F)F)O[C@@H]2S1 [Example 98, (3aR,5S,6S,7R,7aR)-2-(methoxy(methyl)amino)-5-((R)-2,2,2-trifluoro-1-hydroxyethyl)-5,6,7,7a-tetrahydro-3aH-pyrano[3,2-d]thiazole-6,7-diol]",1.43 nM
13,"C[C@@H](O)[C@H]1O[C@@H]2SC(N(C)C)=N[C@@H]2[C@@H](O)[C@@H]1O [Example 104, (3aR,5R,6S,7R,7aR)-2-(dimethylamino)-5-((R)-1-hydroxyethyl)-5,6,7,7a-tetrahydro-3aH-pyrano[3,2-d]thiazole-6,7-diol]",3.63 nM
14,"CCNC1=N[C@@H]2[C@@H](O)[C@H](O)[C@@H]([C@@H](O)CC)O[C@@H]2S1 [Example 105, (3aR,5R,6S,7R,7aR)-2-(ethylamino)-5-((S)-1-hydroxypropyl)-5,6,7,7a-tetrahydro-3aH-pyrano[3,2-d]thiazole-6,7-diol]",3.4 nM
15,"C[C@H](O)[C@H]1O[C@@H]2SC(NCCF)=N[C@@H]2[C@@H](O)[C@@H]1O [Example 141, (3aR,5R,6S,7R,7aR)-2-(2-Fluoroethylamino)-5-((S)-1-hydroxyethyl)-5,6,7,7a-tetrahydro-3aH-pyrano[3,2-d]thiazole-6,7-diol]",0.82 nM
16,"CNC1=N[C@@H]2[C@@H](O)[C@H](O)[C@@H](C(C)(O)C(F)(F)F)O[C@@H]2S1 (stereo partly drawn) [Example 159, (3aR,5S,6S,7R,7aR)-2-(methylamino)-5-(1,1,1-trifluoro-2-hydroxypropan-2-yl)-5,6,7,7a-tetrahydro-3aH-pyrano[3,2-d]thiazole-6,7-diol]",1.25 nM
17,"CNC1=N[C@@H]2[C@@H](O)[C@H](O)[C@@H]([C@@H](O)C(F)F)O[C@@H]2S1 [Example 191, (3aR,5S,6S,7R,7aR)-5-((R)-2,2-difluoro-1-hydroxyethyl)-2-(methylamino)-5,6,7,7a-tetrahydro-3aH-pyrano[3,2-d]thiazole-6,7-diol]",0.14 nM
18,"O[C@H]1[C@H](O)[C@@H]([C@H](O)C(F)(F)F)O[C@@H]2SC(NCCF)=N[C@H]12 [Example 215, (3aR,5S,6S,7R,7aR)-2-(2-fluoroethylamino)-5-((S)-2,2,2-trifluoro-1-hydroxyethyl)-5,6,7,7a-tetrahydro-3aH-pyrano[3,2-d]thiazole-6,7-diol]",1.8 nM
